Results from ChEMBL document CHEMBL5532667 (J Med Chem, 2024).
In brackets after ≈: the same amount, converted by molar mass. Values belong to the molecule of their own block, whether it stands above or below them.

Legend:
NIH3T3 = test: cells; details: Mus musculus, BALB/c, NIH3T3, light or radiation study
Description: Phototoxicity against BALB/c mouse 3T3 cells assessed as reduction in cell viability preincubated for 1 hr followed by 5 J/cm2 irradiation and subsequent replacement of medium without compound and measured after 24 hrs by neutral red dye based assay

in vitro = details: mouse, nih3t3
Description: Dark toxicity against BALB/c mouse 3T3 cells assessed as reduction in cell viability incubated for 1 hr by neutral red dye based assay

Progesterone receptor = target: T1, Progesterone receptor (Homo sapiens, UniProt P06401); format: cell-based, HEK293T
T1 sequence (P06401 whole entry): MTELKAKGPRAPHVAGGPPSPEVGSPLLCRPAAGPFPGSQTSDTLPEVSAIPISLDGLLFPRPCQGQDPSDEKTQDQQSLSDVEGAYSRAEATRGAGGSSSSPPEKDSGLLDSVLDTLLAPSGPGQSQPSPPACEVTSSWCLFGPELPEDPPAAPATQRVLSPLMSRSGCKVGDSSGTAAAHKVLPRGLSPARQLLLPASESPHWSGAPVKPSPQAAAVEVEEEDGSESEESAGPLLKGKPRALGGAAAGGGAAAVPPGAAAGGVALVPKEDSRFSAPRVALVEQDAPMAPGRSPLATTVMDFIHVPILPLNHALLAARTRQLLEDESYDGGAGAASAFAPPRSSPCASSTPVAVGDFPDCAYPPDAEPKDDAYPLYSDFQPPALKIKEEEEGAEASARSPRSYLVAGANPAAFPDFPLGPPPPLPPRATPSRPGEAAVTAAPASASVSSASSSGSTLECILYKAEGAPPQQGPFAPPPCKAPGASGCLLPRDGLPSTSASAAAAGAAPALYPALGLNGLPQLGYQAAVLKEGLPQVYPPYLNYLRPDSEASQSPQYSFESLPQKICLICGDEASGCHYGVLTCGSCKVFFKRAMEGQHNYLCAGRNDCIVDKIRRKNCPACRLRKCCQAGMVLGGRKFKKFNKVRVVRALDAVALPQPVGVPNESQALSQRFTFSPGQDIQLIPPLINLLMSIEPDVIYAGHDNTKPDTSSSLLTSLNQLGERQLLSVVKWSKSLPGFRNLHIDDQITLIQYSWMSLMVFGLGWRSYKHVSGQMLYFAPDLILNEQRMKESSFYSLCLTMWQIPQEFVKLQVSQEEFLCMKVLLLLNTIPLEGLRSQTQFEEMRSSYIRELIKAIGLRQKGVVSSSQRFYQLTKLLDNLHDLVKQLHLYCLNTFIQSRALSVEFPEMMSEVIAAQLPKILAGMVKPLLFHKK
Description: Antagonist activity at PR in HEK293T cells assessed as reduction in transcriptional activity incubated for 24 hrs by britelite plus reagent based plate reader assay

[1] = target: T2, Thyroid hormone receptor beta (Homo sapiens, UniProt P10828); format: cell-based, HEK293T
T2 sequence (P10828 whole entry): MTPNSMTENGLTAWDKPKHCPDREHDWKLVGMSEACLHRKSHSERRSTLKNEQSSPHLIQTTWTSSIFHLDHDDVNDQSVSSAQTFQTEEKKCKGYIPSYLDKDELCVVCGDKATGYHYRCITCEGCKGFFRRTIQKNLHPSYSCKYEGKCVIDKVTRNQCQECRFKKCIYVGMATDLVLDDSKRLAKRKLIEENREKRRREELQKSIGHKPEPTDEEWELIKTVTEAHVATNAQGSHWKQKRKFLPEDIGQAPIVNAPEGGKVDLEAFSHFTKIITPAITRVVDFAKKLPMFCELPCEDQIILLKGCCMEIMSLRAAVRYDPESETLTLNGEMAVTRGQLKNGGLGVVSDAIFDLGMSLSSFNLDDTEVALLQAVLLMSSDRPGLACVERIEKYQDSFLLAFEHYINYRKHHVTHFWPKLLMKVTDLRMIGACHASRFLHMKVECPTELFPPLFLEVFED
Description: Antagonist activity at TRbeta in HEK293T cells assessed as reduction in transcriptional activity incubated for 24 hrs by britelite plus reagent based plate reader assay

in vivo [2] = details: C57BL/6, mouse, iv, 1 mg/kg
in vivo [3] = details: C57BL/6, mouse, iv, 1 mg/kg; remark: listed apart in the source
in vivo [4] = details: C57BL/6, mouse, iv, 1 mg/kg; remark: listed apart in the source
in vivo [5] = details: C57BL/6, mouse, iv, 1 mg/kg; remark: listed apart in the source
in vivo [6] = details: C57BL/6, mouse, iv, 1 mg/kg; remark: listed apart in the source
in vivo [7] = details: C57BL/6, mouse, brain, iv, 1 mg/kg

- IC50 at 1 h (in vitro): 45.1 µg/mL (≈ 141 µM)
SMILES: CN(C)CCCN1c2ccccc2Sc2ccc(Cl)cc21 [CHLORPROMAZINE]
- IC50 (NIH3T3): 0.93 µg/mL (≈ 2.92 µM)

- IC50 (Progesterone receptor): 3.5 µM
- IC50 [1]: > 10 µM
SMILES: C[C@](O)(CN1CC2CC(C1)N2c1ccc(C#N)cc1)C(=O)Nc1cnc(C#N)c(C(F)(F)F)c1

SMILES: C[C@](O)(CN1CC2CC(C1)N2c1ccc(C#N)cc1F)C(=O)Nc1cnc(C#N)c(C(F)(F)F)c1
- half-life at 24 h (in vivo [2]): 54.6 min
- clearance at 24 h (in vivo [3]): 37.8 mL/min/kg
- AUC(0-t) at 24 h (in vivo [4]): 444 ng·h/mL
- C0 at 24 h (in vivo [5]): 1060 ng/mL
- Vd at 24 h (in vivo [6]): 1.35 L/kg
- Kp at 24 h (in vivo [7]): 0.45
